Tested on: ATF4 luciferase reporter in HEK293T cells
Assay: ATF4-Luc assay (in vitro model of VWMD)
Type: cell-based, human
Settings: Homo sapiens, HEK-293T, 7 h, HEK293T cells carrying the ATF4 luciferase reporter, 1 μg/mL tunicamycin, One Glo luminescence
Procedure: In order to test exemplary compounds of the invention in a cellular context, a stable VWMD cell line was first constructed. The ATF4 reporter was prepared by fusing the human full-length ATF4 5′-UTR (NCBI Accession No. BC022088.2) in front of the firefly luciferase (FLuc) coding sequence lacking the initiator methionine as described in Sidrauski et al (eLife 2013). The construct was used to produce recombinant retroviruses using standard methods and the resulting viral supernatant was used to transduce HEK293T cells, which were then subsequently selected with puromycin to generate a stable cell line.
HEK293T cells carrying the ATF4 luciferase reporter were plated on polylysine coated 384-well plates (Greiner Bio-one) at 30,000 cells per well. Cells were treated the next day with 1 μg/mL tunicamycin and 200 nM of a compound of Formula (I) for 7 hours. Luminescence was measured using One Glo (Promega) as specified by the manufacturer. Cells were maintained in DMEM with L-glutamine supplemented with 10% heat-inactivated FBS (Gibco) and Antibiotic-Antimycotic solution (Gibco).
Table 4 below summarizes the EC50 data obtained using the ATF4-Luc assay for exemplary compounds of the invention.

## O=C(NC12CC(c3ccc(OCCCOC(F)(F)F)nc3)(C1)C2)[C@H]1C[C@@H](O)c2cc(Cl)ccc2O1 [Compound 438, (2R,4R)-6-chloro-4-hydroxy-N-(3-{6-[3-(trifluoromethoxy)propoxy]pyridin-3-yl}bicyclo[1.1.1]pentan-1-yl)-3,4-dihydro-2H-1-benzopyran-2-carboxamide]
  EC50: 10 to 50 nM

## O=C(N[C@H]1CC[C@H](n2cc(N3CC[C@@H](OC(F)(F)F)C3)cn2)CC1)[C@H]1C[C@@H](O)c2cc(Cl)c(F)cc2O1 [Compound 582, (2R,4R)-6-chloro-7-fluoro-4-hydroxy-N-[(1R,4R)-4-{4-[(3R)-3-(trifluoromethoxy)pyrrolidin-1-yl]-1H-pyrazol-1-yl}cyclohexyl]-3,4-dihydro-2H-1-benzopyran-2-carboxamide]
  EC50: 10 to 50 nM

## O=C(NC12CC(c3ccnc(OCCCOC(F)(F)F)c3)(C1)C2)[C@H]1C[C@@H](O)c2cc(Cl)ccc2O1 [Compound 428, (2R,4R)-6-chloro-4-hydroxy-N-(3-{2-[3-(trifluoromethoxy)propoxy]pyridin-4-yl}bicyclo[1.1.1]pentan-1-yl)-3,4-dihydro-2H-1-benzopyran-2-carboxamide]
  EC50: < 10 nM

## O=C(CO[C@H]1C[C@@H](OC(F)(F)F)C1)NC12CC(NC(=O)[C@@H]3C[C@@H](O)c4cc(Cl)ccc4O3)(C1)C2 [Compound 208, (2S,4R)-6-chloro-4-hydroxy-N-[3-(2-{[cis-3-(trifluoromethoxy)cyclobutyl]oxy}acetamido)bicyclo[1.1.1]pentan-1-yl]-3,4-dihydro-2H-1-benzopyran-2-carboxamide]
  EC50: < 10 nM

## C[Si]1(C)CCN(C(=O)c2cnn(C34CC(NC(=O)[C@H]5C[C@@H](O)c6cc(Cl)ccc6O5)(C3)C4)c2)C1 [Compound 401, (2R,4R)-6-chloro-N-{3-[4-(3,3-dimethyl-1,3-azasilolidine-1-carbonyl)-1H-pyrazol-1-yl]bicyclo[1.1.1]pentan-1-yl}-4-hydroxy-3,4-dihydro-2H-1-benzopyran-2-carboxamide]
  EC50: 250 to 500 nM

## CN(CCOC(F)(F)F)c1cnn(C23CC(NC(=O)[C@H]4C[C@@H](O)c5cc(Cl)ccc5O4)(C2)C3)c1 [Compound 411, (2R,4R)-6-chloro-4-hydroxy-N-[3-(4-{methyl[2-(trifluoromethoxy)ethyl]amino}-1H-pyrazol-1-yl)bicyclo[1.1.1]pentan-1-yl]-3,4-dihydro-2H-1-benzopyran-2-carboxamide]
  EC50: 10 to 50 nM

## O=C(NC12CC(c3cn([C@H]4C[C@@H](OC(F)(F)F)C4)nn3)(C1)C2)[C@H]1C[C@@H](O)c2cc(Cl)ccc2O1 [Compound 315, (2R,4R)-6-chloro-4-hydroxy-N-(3-{1-[cis-3-(trifluoromethoxy)cyclobutyl]-1H-1,2,3-triazol-4-yl}bicyclo[1.1.1]pentan-1-yl)-3,4-dihydro-2H-1-benzopyran-2-carboxamide]
  EC50: 10 to 50 nM

## O=C(COc1ccc(Cl)c(F)c1)NC12CCC(n3cc(OCCCOC(F)(F)F)cn3)(C1)C2 [Compound 630, 2-(4-chloro-3-fluorophenoxy)-N-(4-{4-[3-(trifluoromethoxy)propoxy]-1H-pyrazol-1-yl}bicyclo[2.1.1]hexan-1-yl)acetamide]
  EC50: 50 to 250 nM

## O=C(NC12CC(n3cc(-c4ccc(OC(F)(F)F)c(F)c4)cn3)(C1)C2)[C@H]1C[C@@H](O)c2cc(Cl)ccc2O1 [Compound 312, (2R,4R)-6-chloro-N-(3-{4-[3-fluoro-4-(trifluoromethoxy)phenyl]-1H-pyrazol-1-yl}bicyclo[1.1.1]pentan-1-yl)-4-hydroxy-3,4-dihydro-2H-1-benzopyran-2-carboxamide]
  EC50: < 10 nM

## O=C(CO[C@H]1C[C@@H](OC(F)(F)F)C1)N[C@H]1C[C@H]2C[C@@H]1C[C@@H]2NC(=O)[C@H]1C[C@@H](O)c2cc(C(F)(F)F)c(F)cc2O1 [Compound 646, (2R,4R)-7-fluoro-4-hydroxy-N-[(1R,2S,4R,5S)-5-(2-{[(1s,3R)-3-(trifluoromethoxy)cyclobutyl]oxy}acetamido)bicyclo[2.2.1]heptan-2-yl]-6-(trifluoromethyl)-3,4-dihydro-2H-1-benzopyran-2-carboxamide]
  EC50: < 10 nM

## O=C(NC12CC(n3cc(CCCOC(F)(F)F)cn3)(C1)C2)[C@H]1CC(O)c2cc(Cl)ccc2O1 (stereo in doubt) [Compound 463, (2R,4R)-6-chloro-4-hydroxy-N-(3-{4-[3-(trifluoromethoxy)propyl]-1H-pyrazol-1-yl}bicyclo[1.1.1]pentan-1-yl)-3,4-dihydro-2H-1-benzopyran-2-carboxamide]
  EC50: < 10 nM

## C[C@@H](COC(F)(F)F)N(C)c1cnn(C23CC(NC(=O)[C@H]4C[C@@H](O)c5cc(Cl)ccc5O4)(C2)C3)c1 [Compound 445, (2R,4R)-6-chloro-4-hydroxy-N-[3-(4-{methyl[(2S)-1-(trifluoromethoxy)propan-2-yl]amino}-1H-pyrazol-1-yl)bicyclo[1.1.1]pentan-1-yl]-3,4-dihydro-2H-1-benzopyran-2-carboxamide]
  EC50: 500 to 2000 nM

## O=C(NC12CC(n3cc(CCCCOC(F)(F)F)nn3)(C1)C2)[C@H]1C[C@@H](O)c2cc(Cl)ccc2O1 [Compound 465, (2R,4R)-6-chloro-4-hydroxy-N-(3-{4-[4-(trifluoromethoxy)butyl]-1H-1,2,3-triazol-1-yl}bicyclo[1.1.1]pentan-1-yl)-3,4-dihydro-2H-1-benzopyran-2-carboxamide]
  EC50: < 10 nM

## O=C(NC12CC(n3cc(CCCOC(F)(F)F)cn3)(C1)C2)[C@H]1C[C@@H](O)c2cc(Cl)c(F)cc2O1 [Compound 514, (2R,4R)-6-chloro-7-fluoro-4-hydroxy-N-(3-{4-[3-(trifluoromethoxy)propyl]-1H-pyrazol-1-yl}bicyclo[1.1.1]pentan-1-yl)-3,4-dihydro-2H-1-benzopyran-2-carboxamide]
  EC50: < 10 nM

## O=C(COc1ccc(Cl)c(F)c1)NC12CC(c3ccc(C(=O)N4CC(COC(F)(F)F)C4)nc3)(C1)C2 [Compound 600, 2-(4-chloro-3-fluorophenoxy)-N-[3-(6-{3-[(trifluoromethoxy)methyl]azetidine-1-carbonyl}pyridin-3-yl)bicyclo[1.1.1]pentan-1-yl]acetamide]
  EC50: < 10 nM

## O=C(NC12CC(n3cc(OCCOC(F)(F)F)cn3)(C1)C2)[C@H]1CNc2cc(Cl)ccc2O1 [Compound 518, (2R)-6-chloro-N-(3-{4-[2-(trifluoromethoxy)ethoxy]-1H-pyrazol-1-yl}bicyclo[1.1.1]pentan-1-yl)-3,4-dihydro-2H-1,4-benzoxazine-2-carboxamide]
  EC50: 10 to 50 nM

## O=C(NC12CC(n3cc(C(=O)N4CC[C@H](COC(F)(F)F)C4)cn3)(C1)C2)[C@H]1C[C@@H](O)c2cc(Cl)ccc2O1 [Compound 400, (2R,4R)-6-chloro-4-hydroxy-N-[3-(4-{(3S)-3-[(trifluoromethoxy)methyl]pyrrolidine-1-carbonyl}-1H-pyrazol-1-yl)bicyclo[1.1.1]pentan-1-yl]-3,4-dihydro-2H-1-benzopyran-2-carboxamide]
  EC50: 10 to 50 nM

## O=C(N[C@H]1CC[C@H](n2cc(OCCOC(F)(F)F)cn2)CC1)[C@H]1C[C@H](O)c2cc(C(F)(F)F)c(F)cc2O1 [Compound 486, (2R,4R)-7-fluoro-4-hydroxy-N-[(1r,4R)-4-{4-[2-(trifluoromethoxy)ethoxy]-1H-pyrazol-1-yl}cyclohexyl]-6-(trifluoromethyl)-3,4-dihydro-2H-1-benzopyran-2-carboxamide]
  EC50: < 10 nM

## O=C(NC12CCC(n3cc(OCCOC(F)(F)F)cn3)(C1)C2)[C@H]1C[C@@H](O)c2cc(Cl)c(F)cc2O1 [Compound 590, (2R,4R)-6-chloro-7-fluoro-4-hydroxy-N-(4-{4-[2-(trifluoromethoxy)ethoxy]-1H-pyrazol-1-yl}bicyclo[2.1.1]hexan-1-yl)-3,4-dihydro-2H-1-benzopyran-2-carboxamide]
  EC50: 10 to 50 nM

## O=C(NC12CC(c3cc(OCCCOC(F)(F)F)ncn3)(C1)C2)[C@H]1C[C@@H](O)c2cc(Cl)c(F)cc2O1 [Compound 649, (2R,4R)-6-chloro-7-fluoro-4-hydroxy-N-(3-{6-[3-(trifluoromethoxy)propoxy]pyrimidin-4-yl}bicyclo[1.1.1]pentan-1-yl)-3,4-dihydro-2H-1-benzopyran-2-carboxamide]
  EC50: < 10 nM

## O=C(NC12CC(c3cnc([C@H]4C[C@@H](OC(F)(F)F)C4)o3)(C1)C2)[C@H]1C[C@@H](O)c2cc(Cl)ccc2O1 [Compound 410, (2R,4R)-6-chloro-4-hydroxy-N-(3-{2-[cis-3-(trifluoromethoxy)cyclobutyl]-1,3-oxazol-5-yl}bicyclo[1.1.1]pentan-1-yl)-3,4-dihydro-2H-1-benzopyran-2-carboxamide]
  EC50: < 10 nM

## O=C(NC12CC(n3cc(-c4ccc(OC(F)(F)F)cn4)cn3)(C1)C2)[C@@H]1C[C@@H](O)c2cc(Cl)ccc2O1 [Compound 346, (2S,4R)-6-chloro-4-hydroxy-N-(3-{4-[5-(trifluoromethoxy)pyridin-2-yl]-1H-pyrazol-1-yl}bicyclo[1.1.1]pentan-1-yl)-3,4-dihydro-2H-1-benzopyran-2-carboxamide]
  EC50: < 10 nM

## O=C(COc1ccc(Cl)c(F)c1)NC12CCC(c3nnc([C@H]4C[C@@H](OC(F)(F)F)C4)o3)(CC1)CC2O (some centres unmarked) [Compound 124, 2-(4-chloro-3-fluorophenoxy)-N-(2-hydroxy-4-{5-[(1s,3s)-3-(trifluoromethoxy)cyclobutyl]-1,3,4-oxadiazol-2-yl}bicyclo[2.2.2]octan-1-yl)acetamide]
  EC50: 10 to 50 nM

— US20250145594A1, “MODULATORS OF THE INTEGRATED STRESS PATHWAY” (Calico Life Sciences LLC, priority 2020, published 2025)
